Experimental data published in patent US20250034183A1, “POLYMORPHIC FORMS AND METHODS OF PRODUCING POLYMORPHIC FORMS OF A COMPOUND” (Viking Therapeutics, Inc., priority 2022, published 2025).
Values joined by “and” are separate entries in the source; they are usually repeats but may differ in a detail not shown here. Equal entries are not always repeated. “Also recorded” adds a separate entry of the source. Structures can show the parent of a compound that is named as a salt.

Legend:
Format in all cases: physicochemical
[1] = Equilibrium aqueous solubility in water at ambient temperature
Method: Equilibrium solubility of Compound 1 and 1-A was measured in water at ambient temperature. A known volume of water was placed in a 1-dram glass vial and weight aliquots of Compound 1 or Compound 1-A were added while magnetically stirring at room temperature. If the solid dissolved, another aliquot of […] was added.

[2] = Kinetic solubility in simulated gastric fluid (SGF); conditions: for Concentration in SFG: SGF pH about 1.2, 37° C.; for Resulting solid after kinetic solubility in SGF (XRPD): SGF pH about 1.2; for Concentrations in SGF up until 6 hours: SGF pH about 1.2, all time points up until 6 hours
Method: (§1) In SGF, concentrations were below 1 μg/mL up until 6 hours. The resulting solid was form A. In water, a concentration of 0.3 mg/mL was achieved within 2 minutes and concentration after 6 hours was about 0.5 mg/mL.
(§2) In SGF, concentrations were below 1 μg/mL up until 6 hours. The resulting solid was non-crystalline by XRPD. In water, a concentration of 2.3 mg/mL was achieved within 2 minutes and concentration after 6 hours was about 3.1 mg/mL.

[3] = Kinetic solubility in water at 37° C.
Method: as §1, §2

[4] = Dynamic vapor sorption (DVS) hygroscopicity; conditions: for Hygroscopicity / water uptake (DVS): 25° C., 5 to 95% RH
Method: DVS analysis was carried out using a TA Instruments Q5000 Dynamic Vapor Sorption analyzer. The instrument was calibrated with standard weights and a sodium bromide standard for humidity. Approximately 10-25 mg of sample was loaded into a metalcoated quartz pan for analysis. The sample was analyzed at 25° C. with a maximum equilibration time of one hour in 10% relative humidity (RH) steps from 5 to 95% RH (adsorption cycle) and from 95 to 5% RH (desorption cycle). The movement from one step to the next occurred either after satisfying the equilibrium criterion of 0.01% weight change or, if the equilibrium criterion was not met, after one hour. The percent weight change values were calculated using Microsoft Excel®.

[5] = Competitive slurry (interconversion) experiments, solid form by XRPD; conditions: all competitive slurry conditions tested
Method: Solutions (˜2 mL) were saturated with Form A of Compound 1. Once saturated, they were centrifuged and the mother liquors were transferred to HPLC vials containing equal amounts (approximately 10 mg each) of Forms A, C, D, and E. The samples were then stirred magnetically at a specified temperature for 3 days. Solids were collected by vacuum filtration.

Question: What does the source list for `Cc1cc(OCP(=O)(O)O)cc(C)c1Cc1ccc(O)c(Cc2ccccc2)c1` [Compound 1-A, (2-dimethylamino)ethanol (“deanol”) salt of Compound 1]?
Answer: Concentration at 4 hours [1]: 1450 µg/mL; Concentration at 24 hours [1]: 1430 µg/mL; Concentration at 48 hours [1]: 1420 µg/mL; Concentration in SFG ([2]; 2 min): 0.35 µg/mL; Concentration in SFG ([2]; 5 min): 0.17 µg/mL; Concentration in SFG ([2]; 10 min): 0.11 µg/mL; Concentration in SFG ([2]; 30 min): 0.08 µg/mL; Concentration in SFG ([2]; 60 min): 0.05 µg/mL; Concentration in SFG ([2]; 120 min): 0.28 µg/mL; Concentration in SFG ([2]; 240 min): 0.21 µg/mL; Concentration in SFG ([2]; 360 min): 0.07 µg/mL; Concentration in water ([3]; 2 min): 2250 µg/mL; Concentration in water ([3]; 5 min): 2660 µg/mL; Concentration in water ([3]; 10 min): 2980 µg/mL; Concentration in water ([3]; 30 min): 3070 µg/mL; Concentration in water ([3]; 60 min): 3140 µg/mL; Concentration in water ([3]; 120 min): 2280 µg/mL; Concentration in water ([3]; 240 min): 2870 µg/mL; Concentration in water ([3]; 360 min (6 hours)): 3070 µg/mL

Question: Which “Concentration at 4 hours” value [1] does the source give for `Cc1cc(OCP(=O)(O)O)cc(C)c1Cc1ccc(O)c(Cc2ccccc2)c1` [Compound 1] here?
Answer: 300 µg/mL

Question: And the “Concentration at 24 hours” value [1]?
Answer: 320 µg/mL

Question: And the “Concentration at 48 hours” value [1]?
Answer: 320 µg/mL

Question: What about the “Resulting solid after kinetic solubility in SGF (XRPD)” value [2] of the same molecule?
Answer: form A

Question: What about the “Concentration in SFG” value ([2]; 2 min) of the same molecule?
Answer: 0.4 µg/mL

Question: What about the “Concentration in SFG” value ([2]; 5 min) of the same molecule?
Answer: 0.18 µg/mL

Question: What about the “Concentration in SFG” value ([2]; 10 min) of the same molecule?
Answer: 0.11 µg/mL

Question: What about the “Concentration in SFG” value ([2]; 30 min) of the same molecule?
Answer: 0.1 µg/mL

Question: What about the “Concentration in SFG” value ([2]; 60 min) of the same molecule?
Answer: 0.07 µg/mL

Question: And the “Concentration in SFG” value ([2]; 120 min)?
Answer: 0.37 µg/mL

Question: What about the “Concentration in SFG” value ([2]; 240 min) of the same molecule?
Answer: 0.15 µg/mL

Question: And the “Concentration in SFG” value ([2]; 360 min)?
Answer: 0.1 µg/mL

Question: And the “Concentrations in SGF up until 6 hours” value [2]?
Answer: below 1 μg/mL

Question: And the Concentration in water ([3]; 2 min)?
Answer: 300 µg/mL and 290 µg/mL

Question: And the Concentration in water ([3]; 5 min)?
Answer: 330 µg/mL

Question: And the Concentration in water ([3]; 10 min)?
Answer: 300 µg/mL

Question: What about the Concentration in water ([3]; 30 min) of the same molecule?
Answer: 290 µg/mL

Question: And the Concentration in water ([3]; 60 min)?
Answer: 400 µg/mL

Question: What about the Concentration in water ([3]; 120 min) of the same molecule?
Answer: 410 µg/mL

Question: And the Concentration in water ([3]; 240 min)?
Answer: 390 µg/mL

Question: With `Cc1cc(OCP(=O)(O)O)cc(C)c1Cc1ccc(O)c(Cc2ccccc2)c1` [Crystalline Form 1] as the molecule, how does the “Concentrations in SGF up until 6 hours” value [2] read?
Answer: below 1 μg/mL

Question: And the “Resulting solid after kinetic solubility in SGF (XRPD)” value ([2]; listed as Compound 1-A (Form 1))?
Answer: non-crystalline

Question: What about the “Resulting solid after kinetic solubility in water” value [3] of the same molecule?
Answer: crystalline Form 3

Question: What about the Concentration in water ([3]; 2 min, listed as Compound 1-A (Form 1)) of the same molecule?
Answer: 2300 µg/mL

Question: What about the Concentration in water ([3]; 360 min (6 hours), listed as Compound 1-A (Form 1)) of the same molecule?
Answer: about 3.1 mg/mL

Question: For `Cc1cc(OCP(=O)(O)O)cc(C)c1Cc1ccc(O)c(Cc2ccccc2)c1` [Crystalline Form 2], which “Hygroscopicity / water uptake (DVS)” value ([4]; listed as Crystal Form 2) is on record?
Answer: moderately hygroscopic

Question: Which “Hygroscopicity / water uptake (DVS)” value [4] does the source give for `Cc1cc(OCP(=O)(O)O)cc(C)c1Cc1ccc(O)c(Cc2ccccc2)c1` [Crystalline Form 3] here?
Answer: slight water uptake

Question: Which “Relative stability of crystal forms” value [5] does the source give for `Cc1cc(OCP(=O)(O)O)cc(C)c1Cc1ccc(O)c(Cc2ccccc2)c1` [Crystalline Form A] here?
Answer: most stable form

Question: What about the Stability over humidity [4] of the same molecule?
Answer: stable over a wide range of humidity

Question: And the “Hygroscopicity / water uptake (DVS)” value [4]?
Answer: moderately hygroscopic; also recorded: moderate water uptake
